The values below come from patent publication US11560366B2, “Bicyclo[1.1.1]pentane inhibitors of dual leucine zipper (DLK) kinase for the treatment of disease” (Board of Regents, The University of Texas System, priority 2019, dated 2023).

Data set [1] has as its target human DLK (Homo sapiens (Human), UniProt Q12852). Kind of data set: DLK Kd determination (KINOMEscan KdELECT, DiscoveRx). It is filed as binding.
Protocol: The DLK dissociation constants (Kd) have been determined in the KINOMEscan KdELECT Service at DiscoveRx.
A fusion protein of full length of human DLK (amino acids 1-859) and the DNA binding domain of NFkB was expressed in transiently transfected HEK293 cells. From these HEK 293 cells, extracts were prepared in M-PER extraction buffer (Pierce) in the presence of Protease Inhibitor Cocktail Complete (Roche) and Phosphatase Inhibitor Cocktail Set II (Merck) per manufacturers' instructions. The DLK fusion protein was labeled with a chimeric double-stranded DNA tag containing the NFkB binding site (5′-[sequence]-3′, SEQ ID NO:1) fused to an amplicon for qPCR readout, which was added directly to the expression extract (the final concentration of DNA-tag in the binding reaction is 0.1 nM).
The liganded beads were blocked with excess biotin and washed with blocking buffer (SeaBlock (Pierce), 1% BSA, 0.05% Tween 20, 1 mM DTT) to remove unbound ligand and to reduce nonspecific binding.
Extracts were used directly in binding assays without any enzyme purification steps at a >10,000-fold overall stock dilution (final DNA-tagged enzyme concentration <0.1 nM). Extracts were loaded with DNA-tag and diluted into the binding reaction in a two step process. First extracts were diluted 1:100 in 1× binding buffer (PBS/0.05% Tween 20/10 mM DTT/0.1% BSA/2 μg/ml sonicated salmon sperm DNA) containing 10 nM DNA-tag. This dilution was allowed to equilibrate at room temperature for 15 minutes and then subsequently diluted 1:100 in 1× binding buffer. Test compounds were prepared as 111× stocks in 100% DMSO. Kds were determined using an 11-point 3-fold compound dilution series with three DMSO control points. […] The compounds were then diluted directly into the assays such that the final concentration of DMSO was 0.9%. All reactions performed in polypropylene 384-well plates. Each was a final volume of 0.02 mL. Assays were incubated with shaking for 1 hour at room temperature. Then the beads were pelleted and washed with wash buffer (1×PBS, 0.05% Tween 20) to remove displaced kinase and test compound. […] The kinase concentration in the eluates was measured by qPCR. qPCR reactions were assembled by adding 2.5 μL of kinase eluate to 7.5 μL of qPCR master mix containing 0.15 μM amplicon primers and 0.15 μM amplicon probe.
Test compounds were prepared as 111× stocks in 100% DMSO. Kds were determined using an 11-point 3-fold compound dilution series with three DMSO control points. […] The compounds were then diluted directly into the assays such that the final concentration of DMSO was 0.9%. The Kds were determined using a compound top concentration of 30,000 nM. Kd measurements were performed in duplicate.
Binding constants (Kds) were calculated with a standard dose-response curve using the Hill equation:
The Hill Slope was set to −1.
Data set [2] in a line: Metabolic stability in liver microsomes, rat. As to conditions: Sprague Dawley, 0.5 mg/mL microsomes, NADPH, 45 minutes, 37° C., read-out: Half-life in liver microsomes (t1/2, minutes). In kind it is in vitro ADME. As for the experimental part:
(§1) The test compound was incubated with liver microsomes (0.5 mg/mL) from CD-1 mouse, Sprague Dawley rat, Beagle dog, Cynomolgus monkey, and human in the presence of NADPH for 45 minutes at 37° C. The % parent remaining over time was determined by LC-MS/MS, using peak area ratios. Half-life (t1/2) was calculated using the following equation: t1/2=ln2/k, where k is the rate constant of parent decay over time (slope of the plot of log[% parent remaining] versus time).
(Liver microsomes are a subcellular fraction often used to study metabolism.)

The nature of data set [3]: Metabolic stability in liver microsomes, human. It is filed as in vitro ADME. Conditions: 0.5 mg/mL microsomes, NADPH, 45 minutes, 37° C., read-out: Half-life in liver microsomes (t1/2, minutes). On the procedure:
as §1

Data set [4] can be described thus: Mouse pharmacokinetics, single dose. Conditions: for Kp / unbound brain-to-plasma ratio (Kp,uu): brain and plasma, po, 10 mg/kg, based on AUC; for Kp / unbound brain-to-plasma ratio (Kp,uu) / AUC(0-t) / Cmax / bioavailability: oral dose 10 mg/kg; for Kp: read-out: Brain/Plasma Ratio; for unbound brain-to-plasma ratio (Kp,uu): read-out: Free Brain/Plasma Ratio; for clearance / half-life / Vd: in vivo; for Vd: read-out: Vss; for AUC(0-t) / Cmax / bioavailability: plasma; for brain penetration, in words: relative to 13 and 14b and to 1a, 4b, 8a and 9b; for clearance in mice, comparison in words / half-life in mice, comparison in words: relative to comparator compounds 13 or 14b. It is filed as in vivo, male C57BL/6 mice.

Data set [5] can be described thus: Metabolic stability in liver microsomes, mouse. In kind it is in vitro ADME, CD-1 mouse. As to conditions: CD-1, liver microsomes, 0.5 mg/mL microsomes, NADPH, 45 minutes, 37° C., read-out: Half-life in liver microsomes (t1/2, minutes). As for the experimental part: as §1
Data set [6] can be described thus: Metabolic stability in liver microsomes, monkey. As to conditions: 0.5 mg/mL microsomes, NADPH, 45 minutes, 37° C., read-out: Half-life in liver microsomes (t1/2, minutes). In kind it is in vitro ADME, Cynomolgus monkey. As for the experimental part: as §1
Data set [7] can be described thus: Metabolic stability in liver microsomes, dog. Conditions: Beagle, 0.5 mg/mL microsomes, NADPH, 45 minutes, 37° C., read-out: Half-life in liver microsomes (t1/2, minutes). In kind it is in vitro ADME. On the procedure:
as §1

Data set [8] can be described thus: Metabolic stability in liver microsome preparations, overall comparison. It is filed as in vitro ADME. As to conditions: relative to comparator compounds 13 or 14/14b (WO2018207072). As for the experimental part:
as §1

[9] abbreviates: male, C57BL/6, mouse, male C57BL/6 mice.
[10] abbreviates: mouse, male C57BL/6 mice, IV dose 0.3 mg/kg (1a, 4b, 13, 14b, 16; IV dose of 8a, 9b not stated).
The mark [11] stands for this setting: full length human DLK fusion protein, qPCR readout, duplicate, read-out: Kd.
Setting [12] is: male, C57BL/6, mouse, iv, 1 mg/kg.

Like-named read-outs stand apart in the source and are kept apart here.

Sequence of human DLK (Q12852 whole entry): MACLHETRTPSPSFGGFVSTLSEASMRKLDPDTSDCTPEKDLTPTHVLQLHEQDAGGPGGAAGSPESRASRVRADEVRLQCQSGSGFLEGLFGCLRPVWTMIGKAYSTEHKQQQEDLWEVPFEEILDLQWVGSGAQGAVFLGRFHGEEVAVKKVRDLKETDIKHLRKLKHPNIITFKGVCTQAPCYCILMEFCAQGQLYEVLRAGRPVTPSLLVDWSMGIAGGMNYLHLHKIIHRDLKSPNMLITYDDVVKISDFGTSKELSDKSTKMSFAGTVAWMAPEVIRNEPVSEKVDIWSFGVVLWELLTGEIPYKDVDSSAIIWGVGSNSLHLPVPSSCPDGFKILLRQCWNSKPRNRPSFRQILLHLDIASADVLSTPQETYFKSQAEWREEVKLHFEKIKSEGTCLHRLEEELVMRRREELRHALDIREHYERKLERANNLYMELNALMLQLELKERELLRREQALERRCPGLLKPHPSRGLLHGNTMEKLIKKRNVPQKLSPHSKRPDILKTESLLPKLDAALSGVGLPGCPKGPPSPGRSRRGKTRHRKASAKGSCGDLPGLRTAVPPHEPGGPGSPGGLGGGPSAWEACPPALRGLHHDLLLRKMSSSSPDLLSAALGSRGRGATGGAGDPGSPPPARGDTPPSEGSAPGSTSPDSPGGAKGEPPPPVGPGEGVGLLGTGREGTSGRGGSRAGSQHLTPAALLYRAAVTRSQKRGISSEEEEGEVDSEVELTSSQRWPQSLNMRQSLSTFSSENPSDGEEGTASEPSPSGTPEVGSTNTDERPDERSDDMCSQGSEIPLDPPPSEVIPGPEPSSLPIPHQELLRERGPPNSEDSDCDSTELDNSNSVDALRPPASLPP

What is called Kd is the equilibrium constant for the complex coming apart. With `CC(C)[C@H](O)c1nc(-c2cnc(N)c(OC(F)(F)F)c2)cn1C12CC(F)(C1)C2` (single isomer, unassigned) [Example 3b], the Kd in data set [1] (read-out: Kd) was determined as 240 pM.
For `CC(C)[C@@H](O)c1nc(-c2cnc(N)c(C(F)(F)F)c2)cn1C12CC(N3CCC(F)(F)CC3)(C1)C2` (single isomer, unassigned) [Example 7a], the half-life in data set [2] stood at 566 min; in data set [3] it was 70 min. Also, the Kd in data set [1] (read-out: Kd) was 210 pM.
Usually clearance stands for the volume of plasma or blood freed of the substance per unit of time. One may read the AUC(0-t) as exposure summed from dosing to a finite time, without extrapolation to infinity. One may read the Cmax as the maximum level reached in the sampled fluid or tissue. With `CC(C)[C@@H](O)c1nc(-c2cnc(N)c(OC(F)(F)F)c2)cn1C12CC(N3CCC(F)(F)CC3)(C1)C2` (single isomer, unassigned) [Example 8a], the half-life in data set [2] was 201 min. The half-life in data set [3] was 297 min. For the same compound, in data set [4] (setting [9]), the Kp came to 0.82 and the unbound brain-to-plasma ratio (Kp,uu) came out at 0.38. Besides, in data set [4] (setting [10]), the clearance came to 7 mL/min/kg, the half-life is 6.7 h and the Vd turned out to be 3.8 L/kg. Also, in data set [4] (mouse, male C57BL/6 mice), the AUC(0-t) stood at 41.4 µM·h, the peak level (Cmax) was 3.54 µM and the bioavailability worked out at 106%. The half-life in data set [5] was 322 min. In addition, the Kd in data set [1] (read-out: Kd) was 500 pM.
As for `Nc1ncc(-c2cn(C34CC(N5CCC(F)(F)CC5)(C3)C4)c([C@@H](O)C(F)(F)F)n2)cc1C(F)(F)F` (single isomer, unassigned) [Example 10a], the Kd in data set [1] (read-out: Kd) worked out at 620 pM.
Consider `CC(C)C(O)c1nc(-c2cnc(N)c(C(F)(F)F)c2)cn1C12CC(C1)C2` (stereo not drawn) [Compound 14, 1-(4-(6-amino-5-(trifluoromethyl)pyridin-3-yl)-1-(bicyclo[1.1.1]pentan-1-yl)-1H-imidazol-2-yl)-2-methylpropan-1-ol, reference compound], for which the half-life in data set [2] was 27 min; in data set [3], 41 min. In addition, in data set [1] (setting [11]), the Kd amounted to 300 pM.
Consider `CC(C)[C@H](O)c1nc(-c2cnc(N)c(C(F)(F)F)c2)cn1C12CC(C1)C2` [Compound 14b, (S)-1-(4-(6-amino-5-(trifluoromethyl)pyridin-3-yl)-1-(bicyclo[1.1.1]pentan-1-yl)-1H-imidazol-2-yl)-2-methylpropan-1-ol, reference compound], for which the half-life is 23 min in data set [2]; 26 min in data set [3]; 0.7 h in data set [4] (setting [10]); 7 min in data set [6]; 16 min in data set [5]; 154 min in data set [7]. For the same compound, the clearance in data set [4] (setting [10]) worked out at 76.7 mL/min/kg. For the same compound, in data set [4] (setting [10]), the Vd worked out at 3.72 L/kg. The compound also displayed an AUC(0-t) in data set [4] (mouse, male C57BL/6 mice) of 3.62 µM·h. Further, the Cmax in data set [4] (mouse, male C57BL/6 mice) is 3.38 µM. For the same compound, the bioavailability in data set [4] (mouse, male C57BL/6 mice) amounted to 61.2%. Moreover, the Kd in data set [1] (setting [11]) came out at 120 pM.
`CC(C)[C@H](O)c1nc(-c2cnc(N)c(OC(F)(F)F)c2)cn1C12CC(N3CCOCC3)(C1)C2` [Compound 15, (S)-1-(4-(6-amino-5-(trifluoromethoxy)pyridin-3-yl)-1-(3-morpholinobicyclo[1.1.1]pentan-1-yl)-1H-imidazol-2-yl)-2-methylpropan-1-ol, reference compound]: in data set [2], the half-life was 3000 min. In addition, the half-life in data set [3] turned out to be 80 min. Moreover, in data set [4] (setting [9]), the Kp was 0.24 and the unbound brain-to-plasma ratio (Kp,uu) was found to be 0.16. Moreover, in data set [4] (setting [12]), the clearance was found to be 12 mL/min/kg, the half-life was 5.4 h and the Vd was found to be 4.1 L/kg. Moreover, the “brain penetration, in words” value in data set [4] (mouse) is “reduced brain penetration”. Moreover, in data set [4], the “clearance in mice, comparison in words” value is on record as “reduced clearances” and the “half-life in mice, comparison in words” value is “longer half-lives”. Also, in data set [8], the “microsomal stability, comparison in words” value is listed as “improved microsomal stability”. In addition, the half-life in data set [5] worked out at 1840 min.
In the case of `Nc1ncc(-c2cn(C34CC(N5CCOCC5)(C3)C4)c([C@@H](O)C(F)(F)F)n2)cc1OC(F)(F)F` [Compound 16, (R)-1-(4-(6-amino-5-(trifluoromethoxy)pyridin-3-yl)-1-(3-morpholinobicyclo[1.1.1]pentan-1-yl)-1H-imidazol-2-yl)-2,2,2-trifluoroethan-1-ol, reference compound], the half-life in data set [2] amounted to 1500 min. For the same compound, in data set [3], the half-life turned out to be 260 min. In addition, in data set [4] (setting [9]), the Kp was 0.21 and the unbound brain-to-plasma ratio (Kp,uu) was found to be 0.16. In data set [4] (setting [10]), the clearance came out at 4.4 mL/min/kg, the half-life is 5.2 h and the Vd came to 1.8 L/kg. Besides, in data set [4] (mouse, male C57BL/6 mice), the AUC(0-t) worked out at 70.3 µM·h, the Cmax was 11.9 µM and the bioavailability is 92.1%. Moreover, the “brain penetration, in words” value in data set [4] (mouse) is listed as “reduced brain penetration”. Further, in data set [4], the “clearance in mice, comparison in words” value is on record as “reduced clearances” and the “half-life in mice, comparison in words” value was “longer half-lives”. In addition, the “microsomal stability, comparison in words” value in data set [8] is “improved microsomal stability”. Besides, the half-life in data set [5] came out at 1040 min. The Kd in data set [1] (setting [11]) turned out to be 360 pM.
`Nc1ncc(-c2cn(C34CC(F)(C3)C4)c([C@H](O)C(F)(F)F)n2)cc1OC(F)(F)F` [Example 1b, (S)-1-(4-(6-amino-5-(trifluoromethoxy)pyridin-3-yl)-1-(3-fluorobicyclo[1.1.1]pentan-1-yl)-1H-imidazol-2-yl)-2,2,2-trifluoroethanol] registered a Kd in data set [1] of 120000 pM.
Consider `Nc1ncc(-c2cn(C34CC(F)(C3)C4)c([C@@H](O)C(F)(F)F)n2)cc1C(F)(F)F` [Example 2a, (R)-1-(4-(6-amino-5-(trifluoromethyl)pyridin-3-yl)-1-(3-fluorobicyclo[1.1.1]pentan-1-yl)-1H-imidazol-2-yl)-2,2,2-trifluoroethanol], for which, in data set [1] (read-out: Kd), the Kd was found to be 4400 pM.
Still for that read-out and setting: the same measure for `Nc1ncc(-c2cn(C34CC(F)(C3)C4)c(C(O)C3CC3)n2)cc1OC(F)(F)F` (stereo not drawn) [Example 5, (4-(6-amino-5-(trifluoromethoxy)pyridin-3-yl)-1-(3-fluorobicyclo[1.1.1]pentan-1-yl)-1H-imidazol-2-yl)(cyclopropyl)methanol]: 5200 pM; for `Nc1ncc(-c2cn(C34CC(F)(C3)C4)c(C(O)C3CC3)n2)cc1C(F)(F)F` (stereo not drawn) [Example 6, (4-(6-amino-5-(trifluoromethyl)pyridin-3-yl)-1-(3-fluorobicyclo[1.1.1]pentan-1-yl)-1H-imidazol-2-yl)(cyclopropyl)methanol]: 7700 pM; for `Nc1ncc(-c2cn(C34CC(N5CCC(F)(F)CC5)(C3)C4)c(C(O)C3CC3)n2)cc1OC(F)(F)F` (stereo not drawn) [Example 11, (4-(6-amino-5-(trifluoromethoxy)pyridin-3-yl)-1-(3-(4,4-difluoropiperidin-1-yl)bicyclo[1.1.1]pentan-1-yl)-1H-imidazol-2-yl)(cyclopropyl)methanol]: 3100 pM.
The same measure, in the same setting: the same measure for `Nc1ncc(-c2cn(C34CC(N5CCC(F)(F)CC5)(C3)C4)c(C(O)C3CC3)n2)cc1C(F)(F)F` (stereo not drawn) [Example 12, (4-(6-amino-5-(trifluoromethyl)pyridin-3-yl)-1-(3-(4,4-difluoropiperidin-1-yl)bicyclo[1.1.1]pentan-1-yl)-1H-imidazol-2-yl)(cyclopropyl)methanol]: 2900 pM.
